Legend:
[1] = Trained panel flavor evaluation, light beer, forced aging; details: 5 ppm, 6 days 32° C.; for preservation of fresh flavor (words): light beer
Experimental: Separate solution of pure rosmarinic acid, pure carnosol and pure carnosic acid were prepared in ethanol as previously.
The light beer used in this study was approximately one month old and was purchased at a local market. Bottle additions were done as in Example 1.
The bottles were placed in a heated room at 32±1° C. in the dark. After the allotted aging time, the bottles of beer were transferred to a dark refrigerator and stored at approximately 2° to 4° C. until they were analyzed. Additional bottles from the same code were kept unopened in 2° to 4° C. storage. These unopened samples from the same beer code were labeled “Fresh Control” used to provide fresh samples for the trained panel.
At the appropriate times, a trained 7-member panel evaluated the beers. […] Five beers were evaluated at the session—Fresh Control, Aged No Addition, and Aged containing each one of the Labiatae treatments. The overall preference rank, the character and intensity of the aroma, the levels of paper/cardboard aroma and flavor, sour or off flavors, hang and astringency and bitterness quality and intensity were evaluated.

[2] = DCIP redox potential of light beer with carnosol; assay type: physicochemical; details: for DCIP Redox Potential: 2 to 4° C. for 1 day
Experimental: A 2% solution of carnosol, isolated from sage extract, was prepared by weighing 200 mg pure carnosol and bringing to 10 mL with pure ethanol. Bottles were dosed at 10 and 20 ppm carnosol with our standard bottle addition technique of opening, fobbing to exclude air, and crowning.
Bottles were stored at 2 to 4° C. for 1 day before analysis. Standard DCIP and DPPH measurements were taken.

[3] = DPPH number of light beer with carnosol; assay type: physicochemical; details: for DPPH No.: 2 to 4° C. for 1 day
Experimental: To perform the test, about 0.04 g of DPPH was weighed to the nearest 0.1 mg in a 100 mL volumetric, recording the exact weight of DPPH. The DPPH was dissolved in methanol and methanol was added to bring the volume to the 100 mL mark. The solution was sonicated to facilitate dissolution. The beers to be measured were opened and 12 mL of each was poured into separate 15 mL centrifuge tubes, making sure that the volumes in all tubes were equal. The analyses were done in triplicate for each beer. An extra beer sample served as a spectrophotometer blank. The beer was degassed by centrifuging it for 15 min at 6,000 rpm. Into each of two 25 mL flasks was pipeted 5 mL of the pH 4.5 water-ethanol buffer. The spectrophotometer wavelength was set to 531 nm and a buffered water blank was zeroed. 1.0 mL of DPPH solution was added to the water buffer, which was swirled at the same time a timer was started. Just before 10 minutes had elapsed, the sample was transferred to a cuvette and the absorbance (ABL) was measured. The analysis was duplicated with another buffer. For accuracy it is necessary that great care be taken to add exactly 1 mL reagent. It is also important to swirl (mix) the samples consistently as the assay is sensitive to oxygen and to the amount of reagent used. Degassed beer was used to obtain a baseline at 531 nm. After centrifugation 5 mL of the beer was transferred into the appropriate labeled 25 mL flask. 1.0 mL of DPPH solution was added, the solution was swirled and the timer was started. The Absorbance (A531) of the beer sample was recorded. This process was repeated for all samples. To eliminate any possible prejudice in order of analysis, samples were analyzed randomly. The following formula was used to calculate the amount of DPPH which reacts with 5 mL of beer: μmol DPPH=((1−A531/ABL)×(g DPPH/394))×10^6
A 2% solution of carnosol, isolated from sage extract, was prepared by weighing 200 mg pure carnosol and bringing to 10 mL with pure ethanol. […]

[4] = Walter et al. 1997; cited from earlier work
[5] = Dadic 1984; cited from earlier work

Compound: CC(C)c1cc2c(c(O)c1O)[C@@]13CCCC(C)(C)[C@@H]1C[C@@H]2OC3=O [CN, carnosol]
- panelists' preference for treated sample over Aged No Addition sample [1]: 7 of 7 panelists preferred
- preservation of fresh flavor (words) [1]: very significantly retards the rate of staling
- preservation of fresh flavor (words) ([1]; listed as Carnosol): significant, positive impact on preserving fresh flavor
- effect on redox potential by DCIP method [2]: does not enhance the redox potential of beer
- DCIP Redox Potential ([2]; 10 ppm Carnosol): 19.6
- DCIP Redox Potential ([2]; 20 ppm Carnosol): 19.6
- effect on beer's ability to reduce DPPH [3]: does not enhance a beer's ability to reduce DPPH
- DPPH No. ([3]; 10 ppm Carnosol): 33.1 μmol DPPH
- DPPH No. ([3]; 20 ppm Carnosol): 37.0 μmol DPPH

Compound: O=c1c(O)c(-c2ccc(O)c(O)c2)oc2cc(O)cc(O)c12 [quercitin]
- effectiveness in standardized antioxidant assays [4]: ineffective

Compound: catechin
- effectiveness in standardized antioxidant assays [4]: ineffective

Compound: COc1ccc(O)c(C(C)(C)C)c1 [BHA]
- effectiveness as antioxidant for beer [5]: ineffective

Compound: Cc1cc(C(C)(C)C)c(O)c(C(C)(C)C)c1 [BHT]
- effectiveness as antioxidant for beer [5]: ineffective

Source: patent US20050058745A1, “Use of Labiatae herb preparations for extending the flavor shelf life of malt beverages” (priority 2003, published 2005)
